Assays:
Assay in all cases: scanMAX kinase assay panel
Assay type in all cases: binding
[1] = target: T1, ARK5 (Homo sapiens, UniProt O60285); details: read-out: control percentage (% control)
T1 construct: purchased DiscoverX (scanMAX panel, contract assay)
In short: (§1)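 Compound was applied as a 1 μM solution in DMSO across the scanMAX kinase panel. Activity is reported as % control, scaled between a positive control (0%) and the DMSO negative control (100%).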

[2] = target: T2, BLK (Homo sapiens, UniProt P51451); details: read-out: control percentage (% control)
T2 construct: purchased DiscoverX (scanMAX panel, contract assay)
In short: as §1

[3] = target: T3, CLK1 (Homo sapiens, UniProt P49759); details: read-out: control percentage (% control)
T3 construct: purchased DiscoverX (scanMAX panel, contract assay)
In short: as §1

[4] = target: T4, CLK2 (Homo sapiens, UniProt P49760); details: read-out: control percentage (% control)
T4 construct: purchased DiscoverX (scanMAX panel, contract assay)
T4 sequence (P49760 whole entry): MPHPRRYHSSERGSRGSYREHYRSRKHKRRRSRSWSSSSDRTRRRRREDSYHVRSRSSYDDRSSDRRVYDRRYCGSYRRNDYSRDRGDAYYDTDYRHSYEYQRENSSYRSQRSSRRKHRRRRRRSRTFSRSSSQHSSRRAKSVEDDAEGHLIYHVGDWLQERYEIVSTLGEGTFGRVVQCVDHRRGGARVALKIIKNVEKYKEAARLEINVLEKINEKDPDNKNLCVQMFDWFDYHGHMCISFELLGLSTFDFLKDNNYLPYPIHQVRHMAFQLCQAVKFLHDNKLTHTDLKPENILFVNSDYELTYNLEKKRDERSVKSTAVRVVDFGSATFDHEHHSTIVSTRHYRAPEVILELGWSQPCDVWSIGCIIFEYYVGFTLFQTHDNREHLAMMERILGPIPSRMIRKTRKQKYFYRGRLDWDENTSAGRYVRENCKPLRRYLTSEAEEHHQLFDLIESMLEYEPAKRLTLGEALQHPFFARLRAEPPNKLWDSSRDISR
In short: as §1

[5] = target: T5, CLK4 (Homo sapiens, UniProt Q9HAZ1); details: read-out: control percentage (% control)
T5 construct: purchased DiscoverX (scanMAX panel, contract assay)
In short: as §1

[6] = target: T6, CSNK1G2 (Homo sapiens, UniProt P78368); details: read-out: control percentage (% control)
T6 construct: purchased DiscoverX (scanMAX panel, contract assay)
In short: as §1

[7] = target: T7, DCAMKL3 (Homo sapiens, UniProt Q9C098); details: read-out: control percentage (% control)
T7 construct: purchased DiscoverX (scanMAX panel, contract assay)
In short: as §1

[8] = target: T8, DLK (Homo sapiens, UniProt Q12852); details: read-out: control percentage (% control)
T8 construct: purchased DiscoverX scanMAX kinase assay panel
In short: as §1

[9] = target: T9, EGFR (Homo sapiens, UniProt P00533); details: read-out: control percentage (% control)
T9 construct: purchased DiscoverX scanMAX kinase assay panel
In short: as §1

[10] = target: T10, EGFR(E746-A750del) (Homo sapiens, UniProt P00533, DEL746-750); details: read-out: control percentage (% control)
T10 construct: purchased DiscoverX scanMAX kinase assay panel
T10 sequence (P00533 with tags, fused parts or gaps DEL746-750): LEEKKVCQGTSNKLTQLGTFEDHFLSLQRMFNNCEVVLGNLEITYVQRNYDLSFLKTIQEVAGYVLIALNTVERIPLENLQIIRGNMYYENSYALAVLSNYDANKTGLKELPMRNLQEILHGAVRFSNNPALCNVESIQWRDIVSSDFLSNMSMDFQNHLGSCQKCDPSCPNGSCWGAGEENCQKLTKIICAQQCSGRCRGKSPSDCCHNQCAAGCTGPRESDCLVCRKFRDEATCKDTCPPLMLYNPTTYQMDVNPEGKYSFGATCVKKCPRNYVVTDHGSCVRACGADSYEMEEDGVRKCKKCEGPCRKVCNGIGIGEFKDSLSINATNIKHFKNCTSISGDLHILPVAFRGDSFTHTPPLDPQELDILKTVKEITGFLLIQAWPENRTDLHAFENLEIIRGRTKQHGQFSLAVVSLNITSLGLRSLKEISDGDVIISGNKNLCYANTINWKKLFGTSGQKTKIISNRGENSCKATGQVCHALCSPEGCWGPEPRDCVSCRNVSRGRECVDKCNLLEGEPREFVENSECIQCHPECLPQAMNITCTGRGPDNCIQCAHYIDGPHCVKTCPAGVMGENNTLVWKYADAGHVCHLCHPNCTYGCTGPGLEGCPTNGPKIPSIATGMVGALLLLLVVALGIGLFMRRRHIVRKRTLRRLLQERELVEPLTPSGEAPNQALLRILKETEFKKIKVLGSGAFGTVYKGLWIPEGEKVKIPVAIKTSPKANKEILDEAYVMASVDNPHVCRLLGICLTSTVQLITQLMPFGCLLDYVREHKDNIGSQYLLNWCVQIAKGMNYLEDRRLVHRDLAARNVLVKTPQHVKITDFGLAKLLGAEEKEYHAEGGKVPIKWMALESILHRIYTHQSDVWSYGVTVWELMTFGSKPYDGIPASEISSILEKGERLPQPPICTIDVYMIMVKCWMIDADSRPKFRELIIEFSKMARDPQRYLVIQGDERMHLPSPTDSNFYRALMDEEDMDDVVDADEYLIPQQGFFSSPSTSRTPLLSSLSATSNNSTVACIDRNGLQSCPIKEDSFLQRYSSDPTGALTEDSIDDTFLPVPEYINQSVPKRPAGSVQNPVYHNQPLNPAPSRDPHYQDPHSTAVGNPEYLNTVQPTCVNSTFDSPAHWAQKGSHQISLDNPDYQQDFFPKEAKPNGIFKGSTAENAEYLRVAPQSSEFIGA
In short: as §1

[11] = target: T11, EGFR(L861Q) (Homo sapiens, UniProt P00533, L861Q); details: read-out: control percentage (% control)
T11 construct: purchased DiscoverX scanMAX kinase assay panel
In short: as §1

[12] = target: T12, EGFR(T790M) (Homo sapiens, UniProt P00533, T790M); details: read-out: control percentage (% control)
T12 construct: purchased DiscoverX scanMAX kinase assay panel
T12 sequence (P00533 25-1210 T790M): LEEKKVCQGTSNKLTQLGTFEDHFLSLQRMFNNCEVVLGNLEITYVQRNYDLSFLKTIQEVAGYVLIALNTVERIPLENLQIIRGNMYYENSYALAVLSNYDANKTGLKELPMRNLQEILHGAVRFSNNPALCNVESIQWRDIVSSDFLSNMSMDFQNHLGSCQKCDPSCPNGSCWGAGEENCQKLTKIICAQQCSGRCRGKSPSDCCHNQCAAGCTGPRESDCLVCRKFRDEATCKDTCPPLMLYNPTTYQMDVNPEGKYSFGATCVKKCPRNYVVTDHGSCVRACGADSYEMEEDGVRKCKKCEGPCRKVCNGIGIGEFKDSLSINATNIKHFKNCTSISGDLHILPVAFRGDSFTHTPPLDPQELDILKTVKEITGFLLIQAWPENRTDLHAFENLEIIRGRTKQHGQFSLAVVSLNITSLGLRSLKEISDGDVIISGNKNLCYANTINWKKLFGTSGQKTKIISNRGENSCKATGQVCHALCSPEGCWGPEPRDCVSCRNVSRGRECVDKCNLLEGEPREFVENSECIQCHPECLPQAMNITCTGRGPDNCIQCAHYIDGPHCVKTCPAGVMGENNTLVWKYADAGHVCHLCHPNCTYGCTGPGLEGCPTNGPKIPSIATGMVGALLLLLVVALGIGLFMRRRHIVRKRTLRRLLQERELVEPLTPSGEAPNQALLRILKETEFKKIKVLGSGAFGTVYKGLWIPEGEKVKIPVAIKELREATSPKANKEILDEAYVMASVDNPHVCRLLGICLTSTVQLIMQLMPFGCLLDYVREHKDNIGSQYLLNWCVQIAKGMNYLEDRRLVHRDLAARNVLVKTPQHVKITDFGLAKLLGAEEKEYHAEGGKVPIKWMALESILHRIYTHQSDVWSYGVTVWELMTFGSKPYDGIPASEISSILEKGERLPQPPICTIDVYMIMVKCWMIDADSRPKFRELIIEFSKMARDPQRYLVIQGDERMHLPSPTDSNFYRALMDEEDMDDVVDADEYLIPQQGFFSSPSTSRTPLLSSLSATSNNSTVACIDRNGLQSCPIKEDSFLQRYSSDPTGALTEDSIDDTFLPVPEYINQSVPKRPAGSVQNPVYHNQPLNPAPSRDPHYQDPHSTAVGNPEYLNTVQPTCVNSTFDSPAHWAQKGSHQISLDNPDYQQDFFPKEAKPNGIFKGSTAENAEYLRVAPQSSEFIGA
In short: as §1

[13] = target: T13, FES (Homo sapiens, UniProt P07332); details: read-out: control percentage (% control)
T13 construct: purchased DiscoverX scanMAX kinase assay panel
In short: as §1

[14] = target: T14, FLT3(D835Y) (Homo sapiens, UniProt P36888, D835Y); details: read-out: control percentage (% control)
T14 construct: purchased DiscoverX scanMAX kinase assay panel
In short: as §1

[15] = test system: FLT3(ITD, F691L); details: 1 μM
In short: as §1

[16] = target: T15, HPK1 (Homo sapiens, UniProt Q92918); details: read-out: control percentage (% control)
T15 construct: purchased DiscoverX scanMAX kinase assay panel
In short: as §1

[17] = target: T16, IRAK3 (Homo sapiens, UniProt Q9Y616); details: read-out: control percentage (% control)
T16 construct: purchased DiscoverX scanMAX kinase assay panel
In short: as §1

[18] = target: T17, ITK (Homo sapiens, UniProt Q08881); details: read-out: control percentage (% control)
T17 construct: purchased DiscoverX scanMAX kinase assay panel
In short: as §1

[19] = target: T18, JAK1(JH2domain-pseudokinase) (Homo sapiens, UniProt P23458); details: read-out: control percentage (% control)
T18 construct: JAK1(JH2domain-pseudokinase); purchased DiscoverX scanMAX kinase assay panel
T18 sequence (P23458 583-855 limits assumed): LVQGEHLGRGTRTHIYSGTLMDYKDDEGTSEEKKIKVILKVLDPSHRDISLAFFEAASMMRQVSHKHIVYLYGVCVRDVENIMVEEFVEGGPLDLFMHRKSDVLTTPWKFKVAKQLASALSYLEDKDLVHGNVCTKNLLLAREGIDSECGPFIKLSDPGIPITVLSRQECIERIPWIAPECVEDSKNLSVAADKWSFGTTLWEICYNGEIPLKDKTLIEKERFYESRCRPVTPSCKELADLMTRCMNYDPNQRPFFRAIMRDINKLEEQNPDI
In short: as §1

[20] = target: T19, JNK1 (Homo sapiens, UniProt P45983); details: read-out: control percentage (% control)
T19 construct: purchased DiscoverX scanMAX kinase assay panel
In short: as §1

[21] = target: T20, JNK3 (Homo sapiens, UniProt P53779); details: read-out: control percentage (% control)
T20 construct: purchased DiscoverX scanMAX kinase assay panel
In short: as §1

[22] = target: T21, KIT(L576P) (Homo sapiens, UniProt P10721, L576P); details: read-out: control percentage (% control)
T21 construct: purchased DiscoverX scanMAX kinase assay panel
T21 sequence (P10721 26-976 L576P): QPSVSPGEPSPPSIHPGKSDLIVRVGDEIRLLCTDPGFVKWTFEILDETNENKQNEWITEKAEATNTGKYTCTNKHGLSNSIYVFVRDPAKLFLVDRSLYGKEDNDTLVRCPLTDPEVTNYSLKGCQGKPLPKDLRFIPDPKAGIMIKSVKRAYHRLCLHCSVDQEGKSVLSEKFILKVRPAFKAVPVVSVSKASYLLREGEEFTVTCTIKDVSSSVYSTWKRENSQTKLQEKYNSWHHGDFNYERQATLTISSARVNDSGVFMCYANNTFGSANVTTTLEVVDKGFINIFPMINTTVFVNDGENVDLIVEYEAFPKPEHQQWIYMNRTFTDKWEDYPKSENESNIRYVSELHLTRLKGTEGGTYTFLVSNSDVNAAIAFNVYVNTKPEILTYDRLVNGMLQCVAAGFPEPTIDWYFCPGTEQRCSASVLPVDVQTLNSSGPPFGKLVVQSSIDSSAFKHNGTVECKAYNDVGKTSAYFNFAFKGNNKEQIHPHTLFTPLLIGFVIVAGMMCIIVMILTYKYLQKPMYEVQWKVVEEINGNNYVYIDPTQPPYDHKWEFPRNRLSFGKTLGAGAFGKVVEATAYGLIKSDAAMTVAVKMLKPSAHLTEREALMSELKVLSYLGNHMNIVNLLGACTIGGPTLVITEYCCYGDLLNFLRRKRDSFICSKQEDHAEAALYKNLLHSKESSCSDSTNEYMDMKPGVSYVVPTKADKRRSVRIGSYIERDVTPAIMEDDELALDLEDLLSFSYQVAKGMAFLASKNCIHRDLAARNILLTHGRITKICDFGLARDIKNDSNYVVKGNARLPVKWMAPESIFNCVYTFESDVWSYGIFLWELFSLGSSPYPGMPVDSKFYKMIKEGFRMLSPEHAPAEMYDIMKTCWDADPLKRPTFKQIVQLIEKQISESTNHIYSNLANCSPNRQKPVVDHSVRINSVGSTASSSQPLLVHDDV
In short: as §1

[23] = target: T22, LOK (Homo sapiens, UniProt O94804); details: read-out: control percentage (% control)
T22 construct: purchased DiscoverX scanMAX kinase assay panel
In short: as §1

[24] = target: T23, MAP4K3 (Homo sapiens, UniProt Q8IVH8); details: read-out: control percentage (% control)
T23 construct: purchased DiscoverX scanMAX kinase assay panel
In short: as §1

[25] = target: T24, MEK5 (Homo sapiens, UniProt Q13163); details: read-out: control percentage (% control)
T24 construct: purchased DiscoverX scanMAX kinase assay panel
In short: as §1

[26] = target: T25, MELK (Homo sapiens, UniProt Q14680); details: read-out: control percentage (% control)
T25 construct: purchased DiscoverX scanMAX kinase assay panel
In short: as §1

[27] = target: T26, MET(Y1235D) (Homo sapiens, UniProt P08581, Y1235D); details: read-out: control percentage (% control)
T26 construct: purchased DiscoverX scanMAX kinase assay panel
In short: as §1

[28] = target: T27, RET (Homo sapiens, UniProt P07949); details: read-out: control percentage (% control)
T27 construct: purchased DiscoverX scanMAX kinase assay panel
In short: as §1

[29] = target: T28, RIOK3 (Homo sapiens, UniProt O14730); details: read-out: control percentage (% control)
T28 construct: purchased DiscoverX scanMAX kinase assay panel
In short: as §1

[30] = target: T29, ROCK1 (Homo sapiens, UniProt Q13464); details: read-out: control percentage (% control)
T29 construct: purchased DiscoverX scanMAX kinase assay panel
In short: as §1

[31] = target: T30, TAOK3 (Homo sapiens, UniProt Q9H2K8); details: read-out: control percentage (% control)
T30 construct: purchased DiscoverX
T30 sequence (Q9H2K8 whole entry): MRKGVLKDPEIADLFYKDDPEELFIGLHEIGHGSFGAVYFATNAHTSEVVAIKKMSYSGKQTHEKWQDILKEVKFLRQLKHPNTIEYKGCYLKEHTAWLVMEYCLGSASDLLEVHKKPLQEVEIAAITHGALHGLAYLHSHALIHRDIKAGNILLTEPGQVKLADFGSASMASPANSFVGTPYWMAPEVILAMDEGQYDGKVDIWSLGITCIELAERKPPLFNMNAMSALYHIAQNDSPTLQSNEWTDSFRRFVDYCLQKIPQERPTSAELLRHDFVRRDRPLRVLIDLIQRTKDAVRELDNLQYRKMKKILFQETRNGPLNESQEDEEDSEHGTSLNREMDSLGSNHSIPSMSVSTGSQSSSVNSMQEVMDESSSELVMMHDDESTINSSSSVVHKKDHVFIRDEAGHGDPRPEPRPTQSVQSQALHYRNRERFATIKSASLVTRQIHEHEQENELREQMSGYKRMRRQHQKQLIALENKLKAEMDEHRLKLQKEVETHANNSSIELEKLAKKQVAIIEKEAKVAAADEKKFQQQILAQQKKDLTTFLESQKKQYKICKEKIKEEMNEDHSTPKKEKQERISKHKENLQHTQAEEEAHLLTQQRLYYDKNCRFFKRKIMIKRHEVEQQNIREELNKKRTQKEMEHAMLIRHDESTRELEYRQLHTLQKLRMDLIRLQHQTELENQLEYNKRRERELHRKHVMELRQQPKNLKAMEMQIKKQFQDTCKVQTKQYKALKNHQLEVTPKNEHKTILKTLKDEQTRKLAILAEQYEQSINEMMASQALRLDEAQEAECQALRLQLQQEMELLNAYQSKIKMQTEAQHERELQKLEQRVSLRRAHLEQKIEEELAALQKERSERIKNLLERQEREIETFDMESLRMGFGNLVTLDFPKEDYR
In short: as §1

[32] = target: T31, TRKA (Homo sapiens, UniProt P04629); details: read-out: control percentage (% control)
T31 construct: purchased DiscoverX
In short: as §1

[33] = target: T32, TRKC (Homo sapiens, UniProt Q16288); details: read-out: control percentage (% control)
T32 construct: purchased DiscoverX
In short: as §1

[34] = target: T33, TYK2(JH2domain-pseudokinase) (Homo sapiens, UniProt P29597); details: read-out: control percentage (% control)
T33 construct: TYK2(JH2domain-pseudokinase); purchased DiscoverX
In short: as §1

[35] = target: T34, ULK2 (Homo sapiens, UniProt Q8IYT8); details: read-out: control percentage (% control)
T34 construct: purchased DiscoverX
In short: as §1

CN1CCN(c2ccc(Nc3nc(N4OCC[C@H]4c4ccccc4)c4cc[nH]c4n3)cc2)CC1 [Example 74, (S)-N-(4-(4-methylpiperazin-1-yl)phenyl)-4-(3-phenylisoxazolidin-2-yl)-7H-pyrrolo[2,3-d]pyrimidin-2-amine]
remaining binding at 1 µM [1]: 8.9%
remaining binding at 1 µM [2]: 19%
remaining binding at 1 µM [3]: 3.4%
remaining binding at 1 µM [4]: 9.2%
remaining binding at 1 µM [5]: 6.4%
remaining binding at 1 µM [6]: 21%
remaining binding at 1 µM [7]: 15%
remaining binding at 1 µM [8]: 9.2%
remaining binding at 1 µM [9]: 28%
remaining binding at 1 µM [10]: 0%
remaining binding at 1 µM [11]: 30%
remaining binding at 1 µM [12]: 3.7%
remaining binding at 1 µM [13]: 32%
remaining binding at 1 µM [14]: 0.15%
control percentage (% control) [15]: 0%
remaining binding at 1 µM [16]: 0.85%
remaining binding at 1 µM [17]: 24%
remaining binding at 1 µM [18]: 5.1%
remaining binding at 1 µM [19]: 1.2%
remaining binding at 1 µM [20]: 2.7%
remaining binding at 1 µM [21]: 4.5%
remaining binding at 1 µM [22]: 31%
remaining binding at 1 µM [23]: 8.7%
remaining binding at 1 µM [24]: 13%
remaining binding at 1 µM [25]: 26%
remaining binding at 1 µM [26]: 2%
remaining binding at 1 µM [27]: 7%
remaining binding at 1 µM [28]: 20%
remaining binding at 1 µM [29]: 3.6%
remaining binding at 1 µM [30]: 11%
remaining binding at 1 µM [31]: 22%
remaining binding at 1 µM [32]: 1.1%
remaining binding at 1 µM [33]: 21%
remaining binding at 1 µM [34]: 2.6%
remaining binding at 1 µM [35]: 2.5%
